# Source: PubChem BioAssay AID2060890 (Molecular Pharmacology Branch, DTP, NCI, 2025)
# Test system: LG0703-F948-PDC complex spheroid viability
# Experiment: Anticancer human tumor LG0703-F948-PDC patient-derived lung adenocarcinoma cell line growth inhibition [RAS]
# Conditions: for IC50: curve of first compound; for viability, T/C: stronger effect = lower value
# How it was run: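 Multi-cell-type spheroids: tumor cells plus HUVEC endothelial cells and mesenchymal stem cells. RAS-pathway inhibitors were combined with targeted agents, each dosed in half-log steps down from clinical Cmax, or from 10 microM when Cmax was unknown.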
# 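Also: spheroids exposed to agents for 7 days.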
# 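For viability, T/C in this document: 100% = DMSO vehicle wells.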
smiles,measurement,setting,value
CC(=O)OC12COC1CC(O)C1(C)C(=O)C(O)C3=C(C)C(OC(=O)C(O)C(NC(=O)OC(C)(C)C)c4ccccc4)CC(O)(C(OC(=O)c4ccccc4)C21)C3(C)C (configuration not stated) + C#Cc1c(F)ccc2cc(O)cc(-c3ncc4c(N5CC6CCC(C5)N6)nc(OCC56CCCN5CC(F)C6)nc4c3F)c12,IC50,second compound 0.0316 µM,< 31.6 nM
same,IC50,second compound 0.1 µM,< 31.6 nM
same,IC50,second compound 0.316 µM,< 31.6 nM
same,IC50,second compound 1 µM,< 31.6 nM
same,IC50,second compound 3.16 µM,< 31.6 nM
same,IC50,second compound 10 µM,< 31.6 nM
same,"viability, T/C","second compound 0.0316 µM, first compound 0.0316 µM",28.1%
same,"viability, T/C","second compound 0.0316 µM, first compound 0.1 µM",22.9%
same,"viability, T/C","second compound 0.0316 µM, first compound 0.316 µM",23.7%
same,"viability, T/C","second compound 0.0316 µM, first compound 1 µM",27.4%
same,"viability, T/C","second compound 0.0316 µM, first compound 3.16 µM",33.1%
same,"viability, T/C","second compound 0.0316 µM, first compound 10 µM",27.8%
same,"viability, T/C","second compound 0.1 µM, first compound 0.0316 µM",23.5%
same,"viability, T/C","second compound 0.1 µM, first compound 0.1 µM",27.3%
same,"viability, T/C","second compound 0.1 µM, first compound 0.316 µM",24.9%
same,"viability, T/C","second compound 0.1 µM, first compound 1 µM",32%
same,"viability, T/C","second compound 0.1 µM, first compound 3.16 µM",32.9%
same,"viability, T/C","second compound 0.1 µM, first compound 10 µM",25.2%
same,"viability, T/C","second compound 0.316 µM, first compound 0.0316 µM",27.2%
same,"viability, T/C","second compound 0.316 µM, first compound 0.1 µM",22.6%
same,"viability, T/C","second compound 0.316 µM, first compound 0.316 µM",27.7%
same,"viability, T/C","second compound 0.316 µM, first compound 1 µM",26.2%
same,"viability, T/C","second compound 0.316 µM, first compound 3.16 µM",24.8%
same,"viability, T/C","second compound 0.316 µM, first compound 10 µM",22.9%
same,"viability, T/C","second compound 1 µM, first compound 0.0316 µM",25.5%
same,"viability, T/C","second compound 1 µM, first compound 0.1 µM",26.4%
same,"viability, T/C","second compound 1 µM, first compound 0.316 µM",24.6%
same,"viability, T/C","second compound 1 µM, first compound 1 µM",26.4%
same,"viability, T/C","second compound 1 µM, first compound 3.16 µM",22.7%
same,"viability, T/C","second compound 1 µM, first compound 10 µM",20.1%
same,"viability, T/C","second compound 3.16 µM, first compound 0.0316 µM",23.5%
same,"viability, T/C","second compound 3.16 µM, first compound 0.1 µM",22.8%
same,"viability, T/C","second compound 3.16 µM, first compound 0.316 µM",23%
same,"viability, T/C","second compound 3.16 µM, first compound 1 µM",18.9%
same,"viability, T/C","second compound 3.16 µM, first compound 3.16 µM",16.3%
same,"viability, T/C","second compound 3.16 µM, first compound 10 µM",16.1%
same,"viability, T/C","second compound 10 µM, first compound 0.0316 µM",17.2%
same,"viability, T/C","second compound 10 µM, first compound 0.1 µM",18.5%
same,"viability, T/C","second compound 10 µM, first compound 0.316 µM",16%
same,"viability, T/C","second compound 10 µM, first compound 1 µM",11.8%
same,"viability, T/C","second compound 10 µM, first compound 3.16 µM",8.84%
same,"viability, T/C","second compound 10 µM, first compound 10 µM",5.54%
